According to patent US8445492B2, “Method for inhibiting growth of cancer cells and cell telomere and diseases of cell proliferation by using heteroannelated anthraquinone derivative compounds” (National Defense Medical Center, priority 2008, dated 2013):

Tests used:
Type in all cases: cell-based
MDA-MB-435 = assay: in vitro test at 1.0×10^−5 M, Breast cancer cell; settings: 1.0×10^−5 molal concentration (M)
MALME-3M = assay: in vitro test at 1.0×10^−5 M, Skin cancer cell; settings: 1.0×10^−5 molal concentration (M)
UACC-257 = assay: in vitro test at 1.0×10^−5 M, Skin cancer cell; settings: 1.0×10^−5 molal concentration (M)
UACC-62 = assay: in vitro test at 1.0×10^−5 M, Skin cancer cell; settings: 1.0×10^−5 molal concentration (M)
SK-MEL-2 = assay: NCI DTP in-vitro dose response, Melanoma
SNB-75 = assay: NCI DTP in-vitro dose response, CNS Cancer
SF-268 = assay: NCI DTP in-vitro dose response, CNS Cancer
OVCAR-4 = assay: NCI DTP in-vitro dose response, Ovarian Cancer
ACHN = assay: NCI DTP in-vitro dose response, Renal Cancer
MDA-MB-231/ATCC = assay: NCI DTP in-vitro dose response, Breast Cancer
SN12C = assay: NCI DTP in-vitro dose response, Renal Cancer
SR = assay: NCI DTP in-vitro dose response, Leukemia
SK-MEL-28 = assay: NCI DTP in-vitro dose response, Melanoma
KM12 = assay: NCI DTP in-vitro dose response, Colon Cancer
COLO 205 = assay: NCI DTP in-vitro dose response, Colon Cancer
MDA-MB-468 = assay: NCI DTP in-vitro dose response, Breast Cancer
SK-MEL-5 = assay: NCI DTP in-vitro dose response, Melanoma
MCF7 = assay: NCI DTP in-vitro dose response, Breast Cancer
SF-539 = assay: NCI DTP in-vitro dose response, CNS Cancer
OVCAR-8 = assay: NCI DTP in-vitro dose response, Ovarian Cancer

CCc1nc2ccc3c(c2[nH]1)C(=O)c1ccccc1C3=O [No. 4, 2-Ethyl-1(3)H-anthra[1,2-d]imidazole-6,11-dione]
inhibition effect on cancer cell line (Table 2 value) (MDA-MB-435): 84.39
inhibition effect on cancer cell line (Table 2 value) (MALME-3M): 56.94
inhibition effect on cancer cell line (Table 2 value) (UACC-257): 39.69
inhibition effect on cancer cell line (Table 2 value) (UACC-62): 51.35

O=C1c2ccccc2C(=O)c2c1ccc1nsnc21 [No. 22, Anthra[2,1-c][1,2,5]thiadiazole-6,11-dione]
GI50 (SK-MEL-2; Homo sapiens, SK-MEL-2): 2.38 µM
CC50 (SK-MEL-2; Homo sapiens, SK-MEL-2, read-out: LC50): > 100 µM
Percent Growth (SK-MEL-2; Log10 Concentration −4.0): −32%
Percent Growth (SK-MEL-2; Log10 Concentration −5.0): −22%
Percent Growth (SK-MEL-2; Log10 Concentration −6.0): 94%
Percent Growth (SK-MEL-2; Log10 Concentration −7.0): 109%
Percent Growth (SK-MEL-2; Log10 Concentration −8.0): 110%
TGI (SK-MEL-2; SK-MEL-2): 6.42E−6
GI50 (SNB-75; Homo sapiens, SNB-75): 1.42 µM
CC50 (SNB-75; Homo sapiens, SNB-75, read-out: LC50): 5.22 µM
Percent Growth (SNB-75; Log10 Concentration −4.0): −100%
Percent Growth (SNB-75; Log10 Concentration −5.0): −100%
Percent Growth (SNB-75; Log10 Concentration −6.0): 77%
Percent Growth (SNB-75; Log10 Concentration −7.0): 66%
Percent Growth (SNB-75; Log10 Concentration −8.0): 76%
TGI (SNB-75; SNB-75): 2.73E−6
GI50 (SF-268; Homo sapiens, SF-268): 3.55 µM
CC50 (SF-268; Homo sapiens, SF-268, read-out: LC50): > 100 µM
Percent Growth (SF-268; Log10 Concentration −4.0): −46%
Percent Growth (SF-268; Log10 Concentration −5.0): 17%
Percent Growth (SF-268; Log10 Concentration −6.0): 90%
Percent Growth (SF-268; Log10 Concentration −7.0): 98%
Percent Growth (SF-268; Log10 Concentration −8.0): 101%
TGI (SF-268; SF-268): 1.87E−5
GI50 (OVCAR-4; Homo sapiens, OVCAR-4): 0.52 µM
CC50 (OVCAR-4; Homo sapiens, OVCAR-4, read-out: LC50): 4.19 µM
Percent Growth (OVCAR-4; Log10 Concentration −4.0): −100%
Percent Growth (OVCAR-4; Log10 Concentration −5.0): −100%
Percent Growth (OVCAR-4; Log10 Concentration −6.0): 32%
Percent Growth (OVCAR-4; Log10 Concentration −7.0): 94%
Percent Growth (OVCAR-4; Log10 Concentration −8.0): 107%
TGI (OVCAR-4; OVCAR-4): 1.76E−6
TGI (ACHN; ACHN): 3.33E−6
GI50 (ACHN; Homo sapiens, ACHN): 1.71 µM
Percent Growth (ACHN; Log10 Concentration −4.0): −39%
Percent Growth (ACHN; Log10 Concentration −5.0): −82%
Percent Growth (ACHN; Log10 Concentration −6.0): 90%
Percent Growth (ACHN; Log10 Concentration −7.0): 114%
Percent Growth (ACHN; Log10 Concentration −8.0): 107%
GI50 (MDA-MB-231/ATCC; Homo sapiens, MDA-MB-231): 2.56 µM
CC50 (MDA-MB-231/ATCC; Homo sapiens, MDA-MB-231, read-out: LC50): > 100 µM
Percent Growth (MDA-MB-231/ATCC; Log10 Concentration −4.0): 6%
Percent Growth (MDA-MB-231/ATCC; Log10 Concentration −5.0): 4%
Percent Growth (MDA-MB-231/ATCC; Log10 Concentration −6.0): 81%
Percent Growth (MDA-MB-231/ATCC; Log10 Concentration −7.0): 87%
Percent Growth (MDA-MB-231/ATCC; Log10 Concentration −8.0): 104%
TGI (MDA-MB-231/ATCC; MDA-MB-231/ATCC): >1.00E−4
GI50 (SN12C; Homo sapiens, SN12C): 2.35 µM
CC50 (SN12C; Homo sapiens, SN12C, read-out: LC50): > 100 µM
Percent Growth (SN12C; Log10 Concentration −4.0): −35%
Percent Growth (SN12C; Log10 Concentration −5.0): −7%
Percent Growth (SN12C; Log10 Concentration −6.0): 83%
Percent Growth (SN12C; Log10 Concentration −7.0): 103%
Percent Growth (SN12C; Log10 Concentration −8.0): 91%
TGI (SN12C; SN12C): 8.42E−6
GI50 (SR; Homo sapiens, SR): 6.89 µM
CC50 (SR; Homo sapiens, SR, read-out: LC50): > 100 µM
Percent Growth (SR; Log10 Concentration −4.0): −22%
Percent Growth (SR; Log10 Concentration −5.0): 41%
Percent Growth (SR; Log10 Concentration −6.0): 99%
Percent Growth (SR; Log10 Concentration −7.0): 112%
Percent Growth (SR; Log10 Concentration −8.0): 108%
TGI (SR; SR): >1.00E−4
GI50 (SK-MEL-28; Homo sapiens, SK-MEL-28): 9.88 µM
CC50 (SK-MEL-28; Homo sapiens, SK-MEL-28, read-out: LC50): 50.3 µM
Percent Growth (SK-MEL-28; Log10 Concentration −4.0): −93%
Percent Growth (SK-MEL-28; Log10 Concentration −5.0): 50%
Percent Growth (SK-MEL-28; Log10 Concentration −6.0): 107%
Percent Growth (SK-MEL-28; Log10 Concentration −7.0): 106%
Percent Growth (SK-MEL-28; Log10 Concentration −8.0): 103%
TGI (SK-MEL-28; SK-MEL-28): 2.24E−5
GI50 (KM12; Homo sapiens, KM12): 11.4 µM
CC50 (KM12; Homo sapiens, KM12, read-out: LC50): 94.8 µM
TGI (KM12; KM12): 3.28E−5
Percent Growth (KM12; Log10 Concentration −4.0): −53%
Percent Growth (KM12; Log10 Concentration −5.0): 56%
Percent Growth (KM12; Log10 Concentration −6.0): 103%
Percent Growth (KM12; Log10 Concentration −7.0): 108%
Percent Growth (KM12; Log10 Concentration −8.0): 107%
TGI (COLO 205; COLO 205): 3.98E−6
GI50 (COLO 205; Homo sapiens, COLO 205): 1.97 µM
CC50 (COLO 205; Homo sapiens, COLO 205, read-out: LC50): 8.04 µM
Percent Growth (COLO 205; Log10 Concentration −4.0): −71%
Percent Growth (COLO 205; Log10 Concentration −5.0): −66%
Percent Growth (COLO 205; Log10 Concentration −6.0): 98%
Percent Growth (COLO 205; Log10 Concentration −7.0): 87%
Percent Growth (COLO 205; Log10 Concentration −8.0): 95%
GI50 (MDA-MB-468; Homo sapiens, MDA-MB-468): 1.83 µM
CC50 (MDA-MB-468; Homo sapiens, MDA-MB-468, read-out: LC50): 5.72 µM
Percent Growth (MDA-MB-468; Log10 Concentration −4.0): −99%
Percent Growth (MDA-MB-468; Log10 Concentration −5.0): −99%
Percent Growth (MDA-MB-468; Log10 Concentration −6.0): 103%
Percent Growth (MDA-MB-468; Log10 Concentration −7.0): 101%
Percent Growth (MDA-MB-468; Log10 Concentration −8.0): 97%
TGI (MDA-MB-468; MDA-MB-468): 3.24E−6
GI50 (SK-MEL-5; Homo sapiens, SK-MEL-5): 1.13 µM
CC50 (SK-MEL-5; Homo sapiens, SK-MEL-5, read-out: LC50): 4.83 µM
Percent Growth (SK-MEL-5; Log10 Concentration −4.0): −100%
Percent Growth (SK-MEL-5; Log10 Concentration −5.0): −100%
Percent Growth (SK-MEL-5; Log10 Concentration −6.0): 58%
Percent Growth (SK-MEL-5; Log10 Concentration −7.0): 85%
Percent Growth (SK-MEL-5; Log10 Concentration −8.0): 98%
TGI (SK-MEL-5; SK-MEL-5): 2.34E−6
GI50 (MCF7; Homo sapiens, MCF7): 1.24 µM
CC50 (MCF7; Homo sapiens, MCF7, read-out: LC50): 7.72 µM
Percent Growth (MCF7; Log10 Concentration −4.0): −63%
Percent Growth (MCF7; Log10 Concentration −5.0): −64%
Percent Growth (MCF7; Log10 Concentration −6.0): 62%
Percent Growth (MCF7; Log10 Concentration −7.0): 77%
Percent Growth (MCF7; Log10 Concentration −8.0): 88%
TGI (MCF7; MCF7): 3.10E−6
GI50 (SF-539; Homo sapiens, SF-539): 1.52 µM
CC50 (SF-539; Homo sapiens, SF-539, read-out: LC50): 5.38 µM
Percent Growth (SF-539; Log10 Concentration −4.0): −98%
Percent Growth (SF-539; Log10 Concentration −5.0): −99%
Percent Growth (SF-539; Log10 Concentration −6.0): 83%
Percent Growth (SF-539; Log10 Concentration −7.0): 84%
Percent Growth (SF-539; Log10 Concentration −8.0): 90%
TGI (SF-539; SF-539): 2.86E−6
GI50 (OVCAR-8; Homo sapiens, OVCAR-8): 0.859 µM
CC50 (OVCAR-8; Homo sapiens, OVCAR-8, read-out: LC50): > 100 µM
Percent Growth (OVCAR-8; Log10 Concentration −4.0): −38%
Percent Growth (OVCAR-8; Log10 Concentration −5.0): −43%
Percent Growth (OVCAR-8; Log10 Concentration −6.0): 46%
Percent Growth (OVCAR-8; Log10 Concentration −7.0): 102%
Percent Growth (OVCAR-8; Log10 Concentration −8.0): 105%
TGI (OVCAR-8; OVCAR-8): 3.28E−6
